Test results published in patent US11213029B2 (priority 2017, dated 2022).
Entries after “also recorded” stand apart in the source; their conditions may differ. Read-outs that look alike come from different tables or passages of the source.

Legend:
Assay type in all cases: cell-based
[1] = tested on: Magnaporthe oryzae; details: 500 mM (40 μl) on disc, 1.5 cm apart, 28° C., 96 hours; FIG. 7
[2] = tested on: Xanthomonas oryzae pv. oryzae (Xoo); details: 8 mm paper disc, 30° C., 24 hours; for degree of inhibition against the growth of Xoo: 10 mM or 20 mM, dark condition, FIGS. 2 and 3; for degree of inhibition against the growth of Xoo (inhibition radius): 10 mM, FIG. 1
[3] = tested on: Xanthomonas oryzae pv. oryzae (Xoo); details: biplate, paper disc on opposite side, 10 mM, 30° C., dark condition, 24 hours; FIG. 4
[4] = tested on: Xanthomonas oryzae; details: by volatility, same manner as Example 3 (10 mM); FIG. 5

Row | Compound | growth inhibition of Magnaporthe oryzae [1] | degree of inhibition against the growth of Xoo [2] | degree of inhibition against the growth of Xoo by volatility [3] | inhibitory effect against the growth of Xanthomonas oryzae compared to Xanthomonas fragariae and Xanthomonas axonopodis [4] | degree of inhibition against the growth of Xoo (inhibition radius) [2] | degree of inhibition against the growth of Xoo ([2]; listed as (S)-(+)-carvone) | degree of inhibition against the growth of Xoo ([2]; listed as (R)-(−)-carvone)
1 | (+)-isopulegol | effect of inhibiting the growth | effect of directly inhibiting the growth |  |  |  |  | 
2 | (−)-isopulegol | effect of inhibiting the growth | effect of directly inhibiting the growth |  |  |  |  | 
3 | (+)-limonene oxide | effect of inhibiting the growth | effect of directly inhibiting the growth |  |  |  |  | 
4 | C=C(C)C1CC=C(C)[C@@H](O)C1 (stereo partly drawn) [L-carveol] | effect of inhibiting the growth | effect of directly inhibiting the growth; also recorded: particularly strong inhibitory effect | strong inhibitory effect | more specifically significant inhibitory effect against the growth of Xanthomonas oryzae | larger inhibition radius than that of limonene |  | 
5 | Cc1ccc(C(C)C)cc1O [carvacrol] | effect of inhibiting the growth | effect of directly inhibiting the growth |  |  |  |  | 
6 | C=C(C)[C@H]1CC=C(C)C(=O)C1 [S-(+)-carvone] | effect of inhibiting the growth | effect of directly inhibiting the growth | strong inhibitory effect | more specifically significant inhibitory effect against the growth of Xanthomonas oryzae | larger inhibition radius than that of limonene | particularly strong inhibitory effect | 
7 | CC1=CCC(C(C)(C)O)CC1 (stereo not drawn) [α-terpineol] | effect of inhibiting the growth | effect of directly inhibiting the growth |  |  |  |  | 
8 | C=C(C)[C@@H]1CC=C(C)CC1 [(S)-(−)-limonene, S-(−)-limonene, reference compound] | inhibited the growth |  | no significant effect | more specifically significant inhibitory effect against the growth of Xanthomonas oryzae | inhibitory effect |  | 
9 | R-(−)-carvone | effect of inhibiting the growth | effect of directly inhibiting the growth | strong inhibitory effect |  |  |  | particularly strong inhibitory effect
10 | C=C(C)C1CCC2(C)OC2C1 (single isomer, unassigned; (-)) [(−)-limonene oxide] | effect of inhibiting the growth | effect of directly inhibiting the growth | did not show a strong inhibitory effect against the growth but showed a larger area for the inhibitory effect compared to those of carveol and carvone |  |  |  | 
11 | C=C(C)[C@H]1CC=C(C)CC1 [(R)-(+)-limonene, R-(+)-limonene, reference compound] |  |  | no significant effect |  |  |  | 
12 | (S)-(−)-perillyl alcohol | effect of inhibiting the growth | effect of directly inhibiting the growth |  |  |  |  | 
